pIC50: −log10 of the molar value. Read-outs that look alike come from different tables or passages of the source.
Biological target: LTC4S (Homo sapiens (Human), UniProt Q16873)
Assay: Human whole blood HTRF assay (LTC4 release after calcium ionophore A23187)
Format: cell-based
Settings: calcium ionophore A23187 stimulation, LTC4 by HTRF
Method: B. Human Whole Blood HTRF Assay
LTC4 synthase catalyzes the conversion of Leukotriene A4 (LTA4) to Leukotriene C4 (LTC4) in the presence of reduced glutathione (GSH) as a co-substrate. For testing the inhibition of LTC4S, compounds are prepared for either eight-point or sixteen-point dose response studies in 384-well Labcyte low dead volume (LDV) plates. For eight-point dose response studies, compounds are diluted 1:5 starting at 1 μM concentration in 90% DMSO. […] Compounds are studied in duplicates. Ten wells are filled with 90% DMSO which correspond to the stimulated and unstimulated control wells. […] The morning of the assay, whole blood is collected from three human donors. Donors must be non-smokers and must not have taken NSAIDs within the 48 hours prior to blood collection. The amount of blood collected per donor depends on the amount of compounds to be tested and the dose response format in which they are to be studied (about 8 mL of whole blood for either 22 compounds in 8-point dose response format or 11 compounds in 16-point dose response format). […] 50 μL of diluted blood are then dispensed into each assay plate well with pre-dispensed compounds and DMSO for the stimulated and unstimulated controls using a Thermo Scientific™ Multidrop™ Combi reagent dispenser, and incubated at 37° C. for 4 hours. Calcium ionophore A23187 is used to induce a rapid increase in intracellular levels of Ca^2+. The Ca^2+ functions as a universal second messenger in various immune cells, such as T cells, B cells and mast cells, and is used to induce degranulation and release of eicosanoids, including LTC4, by cells contained in the whole blood samples. […] All but the unstimulated control wells are subsequently stimulated by dispensing 1 μL of the 0.5 mg/mL calcium ionophore suspension using the Thermo Scientific™ Multidrop™ Combi reagent dispenser. Plates are incubated for 15 minutes at 37° C. Plates are then centrifuged at 300 g for 10 minutes at room temperature to pellet blood cells and stop the reaction. […] Plates are sealed and stored at −80° C.
In order to measure the amount of LTC4 released by cells in the human blood samples during calcium ionophore stimulation, supernatants are analyzed using the Cisbio LTC4 homogeneous time-resolved FRET (HTRF) kit (Cisbio #64LC4PEH). […] Ten serially diluted standard curve solutions are also dispensed in duplicate into each plate as instructed in the protocol. Blank controls and cryptate control wells are also prepared. Then, 5 μL of anti-LTC4-d2 working solution are dispensed into all the wells, but the cryptate control wells. Subsequently, 5 μL of anti-LTC4-Eu3+ cryptate working solution are dispensed into all the wells. Plates are then covered with a lid and incubated at room temperature for one hour with gentle orbital shaking (˜450 rpm). […] HTRF ratios are calculated for each well by dividing the 665 nm intensity by the 620 nm intensity, and multiplying the resulting ratio by 10,000. LTC4 standard curves are interpolated for each plate and used to convert the HTRF ratio readouts into the amount of LTC4 present in each well (in ng/mL). Parametric curve fitting is used to obtain inhibition curves and IC50 values.

[1] = human whole blood diluted 1:3, 4 h incubation, read-out: human whole blood HTRF IC50

Compound	pIC50 [1]	pIC50 (human whole blood HTRF IC50, human whole blood diluted 1:3, 4 h incubation)
O=C1CCCC2(CCN(c3cc(OC4CCOCC4)ncn3)CC2)N1c1ccc(F)c(F)c1 [Example 87, 1-(3,4-difluorophenyl)-9-(6-((tetrahydro-2H-pyran-4-yl)oxy)pyrimidin-4-yl)-1,9-diazaspiro[5.5]undecan-2-one]	8.15	
Nc1nc(C2=CCC(F)(F)CC2)cc(N2CCC3(CCCC(=O)N3c3ccc(F)c(F)c3)CC2)n1 [Example 74, 9-(2-amino-6-(4,4-difluorocyclohex-1-en-1-yl)pyrimidin-4-yl)-1-(3,4-difluorophenyl)-1,9-diazaspiro[5.5]undecan-2-one]	8.40	
Nc1nc(N2CCC3(CCOC(=O)N3c3ccc(F)c(F)c3)CC2)cc(-n2cc(C(F)(F)F)cn2)n1 [Example 115, 9-(2-amino-6-(4-(trifluoromethyl)-1H-pyrazol-1-yl)pyrimidin-4-yl)-1-(3,4-difluorophenyl)-3-oxa-1,9-diazaspiro[5.5]undecan-2-one]	7.55	
C[C@@H](Oc1cc(N2CCC3(CCCC(=O)N3c3ccc(F)c(F)c3)CC2)nc(CO)n1)C(F)(F)F (single isomer, unassigned) [Example 110b, (R)-1-(3,4-difluorophenyl)-9-(2-(hydroxymethyl)-6-((1,1,1-trifluoropropan-2-yl)oxy)pyrimidin-4-yl)-1,9-diazaspiro[5.5]undecan-2-one or (S)-1-(3,4-difluorophenyl)-9-(2-(hydroxymethyl)-6-((1,1,1-trifluoropropan-2-yl)oxy)pyrimidin-4-yl)-1,9-diazaspiro[5.5]undecan-2-one]	8.30	
Nc1nc(OC2CCOCC2)cc(N2CCC3(CCCC(=O)N3c3ccc(F)c(F)c3)CC2)n1 [Example 101, 9-(2-amino-6-((tetrahydro-2H-pyran-4-yl)oxy)pyrimidin-4-yl)-1-(3,4-difluorophenyl)-1,9-diazaspiro[5.5]undecan-2-one]	8.30	
Nc1nc(N2CCC3(CCCC(=O)N3c3ccc(F)c(F)c3)CC2)cc(C(F)(F)C(F)F)n1 [Example 78, 9-(2-amino-6-(1,1,2,2-tetrafluoroethyl)pyrimidin-4-yl)-1-(3,4-difluorophenyl)-1,9-diazaspiro[5.5]undecan-2-one]	7.62	
O=C1CCCC2(CCN(c3cc(-n4ccc(C(F)(F)F)n4)ncn3)CC2)N1c1ccc(F)c(F)c1 [Example 57, 1-(3,4-difluorophenyl)-9-(6-(3-(trifluoromethyl)-1H-pyrazol-1-yl)pyrimidin-4-yl)-1,9-diazaspiro[5.5]undecan-2-one]	6.07	
Cn1nc(OC2CCOCC2)cc(N2CCC3(CCCC(=O)N3c3ccc(F)c(F)c3)CC2)c1=O [Example 17, 1-(3,4-difluorophenyl)-9-(2-methyl-3-oxo-6-((tetrahydro-2H-pyran-4-yl)oxy)-2,3-dihydropyridazin-4-yl)-1,9-diazaspiro[5.5]undecan-2-one]		8.05
O=C1CCCC2(CCN(c3cc(O[C@H]4CCOC4)nc(Cl)n3)CC2)N1c1ccc(F)c(F)c1 [Example 71, (S)-9-(2-chloro-6-((tetrahydrofuran-3-yl)oxy)pyrimidin-4-yl)-1-(3,4-difluorophenyl)-1,9-diazaspiro[5.5]undecan-2-one]	6.24	
O=C1CCCC2(CCN(c3cc(OCC(F)(F)F)nc(Cl)n3)CC2)N1c1ccc(F)c(F)c1 [Example 88, 9-(2-chloro-6-(2,2,2-trifluoroethoxy)pyrimidin-4-yl)-1-(3,4-difluorophenyl)-1,9-diazaspiro[5.5]undecan-2-one]	5.86	
O=C1CCCC2(CCN(c3cc(-n4cc(F)cn4)nc(N4CCOCC4)n3)CC2)N1c1ccc(F)c(F)c1 [Example 73, 1-(3,4-difluorophenyl)-9-(6-(4-fluoro-1H-pyrazol-1-yl)-2-morpholinopyrimidin-4-yl)-1,9-diazaspiro[5.5]undecan-2-one]	7.17	
CC1(Oc2cc(N3CCC4(CCCC(=O)N4c4ccc(F)c(F)c4)CC3)nc(N)n2)CCOC1 (racemic) [Example 104, rac-9-(2-amino-6-((3-methyltetrahydrofuran-3-yl)oxy)pyrimidin-4-yl)-1-(3,4-difluorophenyl)-1,9-diazaspiro[5.5]undecan-2-one]	8.30	
Nc1nc(N2CCC3(CCCC(=O)N3c3ccc(F)c(F)c3)CC2)c(F)c(N2CCC(O)(C(F)(F)F)CC2)n1 [Example 41, 9-(2-amino-5-fluoro-6-(4-hydroxy-4-(trifluoromethyl)piperidin-1-yl)pyrimidin-4-yl)-1-(3,4-difluorophenyl)-1,9-diazaspiro[5.5]undecan-2-one]	8.30	
Nc1nc(OC2CCOCC2)cc(N2CCC3(CC2)C[C@H](F)CC(=O)N3c2ccc(F)c(F)c2)n1 (single isomer, unassigned) [Example 116a, (R)-9-(2-amino-6-((tetrahydro-2H-pyran-4-yl)oxy)pyrimidin-4-yl)-1-(3,4-difluorophenyl)-4-fluoro-1,9-diazaspiro[5.5]undecan-2-one, or (S)-9-(2-amino-6-((tetrahydro-2H-pyran-4-yl)oxy)pyrimidin-4-yl)-1-(3,4-difluorophenyl)-4-fluoro-1,9-diazaspiro[5.5]undecan-2-one]	7.89	
O=C1CCCC2(CCN(c3ncnc(N4CCC(O)(C(F)(F)F)CC4)n3)CC2)N1c1ccc(F)c(F)c1 [Example 40, 1-(3,4-difluorophenyl)-9-(4-(4-hydroxy-4-(trifluoromethyl)piperidin-1-yl)-1,3,5-triazin-2-yl)-1,9-diazaspiro[5.5]undecan-2-one]	8.40	
O=C1CCCC2(CCN(c3cc(-n4cc(F)cn4)ncn3)CC2)N1c1ccc(F)c(F)c1 [Example 56, 9-(6-(4-fluoro-1H-pyrazol-1-yl)pyrimidin-4-yl)-1-(3,4-difluorophenyl)-1,9-diazaspiro[5.5]undecan-2-one]	7.77	
Nc1nc(O[C@H](C2COC2)C(F)(F)F)cc(N2CCC3(CCCC(=O)N3c3ccc(F)c(F)c3)CC2)n1 (single isomer, unassigned) [Example 89b, (R)-9-(2-amino-6-(2,2,2-trifluoro-1-(oxetan-3-yl)ethoxy)pyrimidin-4-yl)-1-(3,4-difluorophenyl)-1,9-diazaspiro[5.5]undecan-2-one or (S)-9-(2-amino-6-(2,2,2-trifluoro-1-(oxetan-3-yl)ethoxy)pyrimidin-4-yl)-1-(3,4-difluorophenyl)-1,9-diazaspiro[5.5]undecan-2-one]	8.30	
CC(Oc1cc(N2CCC3(CCCC(=O)N3c3ccc(F)c(F)c3)CC2)ncn1)C(F)(F)F (racemic) [Example 86, rac-1-(3,4-dfluorophenyl)-9-(6-((1,1,1-trifluoropropan-2-yl)oxy)pyrimidin-4-yl)-1,9-diazaspiro[5.5]undecan-2-one]	8.70	
O=C1CCCC2(CCN(c3cc(C(F)(F)C(F)(F)F)nc(CO)n3)CC2)N1c1ccc(F)c(F)c1 [Example 79, 1-(3,4-difluorophenyl)-9-(2-(hydroxymethyl)-6-(perfluoroethyl)pyrimidin-4-yl)-1,9-diazaspiro[5.5]undecane-2-one]	7.25	
Nc1nc(N2CCC3(CCCC(=O)N3c3ccc(F)c(F)c3)CC2)cc(N2C[C@H]3C[C@@H]2CO3)n1 (racemic) [Example 46, rac-9-(2-amino-6-((1R,4R)-2-oxa-5-azabicyclo[2.2.1]heptan-5-yl)pyrimidin-4-yl)-1-(3,4-difluorophenyl)-1,9-diazaspiro[5.5]undecan-2-one]	6.31	
CC1(C(Oc2cc(N3CCC4(CCCC(=O)N4c4ccc(F)c(F)c4)CC3)nc(N)n2)C(F)(F)F)COC1 (racemic) [Example 96, rac-9-(2-amino-6-(2,2,2-trifluoro-1-(3-methyloxetan-3-yl)ethoxy)pyrimidin-4-yl)-1-(3,4-difluorophenyl)-1,9-diazaspiro[5.5]undecan-2-one]	8.52	
Nc1nc(N2CCC3(CCCC(=O)N3c3ccc(F)c(F)c3)CC2)cc(C(F)(F)C(F)(F)F)n1 [Example 77, 9-(2-amino-6-(perfluoroethyl)pyrimidin-4-yl)-1-(3,4-difluorophenyl)-1,9-diazaspiro[5.5]undecane-2-one]	7.51	
